Laboratory results taken from patent US7381824B2 (Agouron Pharmaceuticals, Inc., priority 2003, dated 2008).

What was measured:
[1] = tested on: human umbilical vein endothelial cells (HUVEC); assay: HUVEC+VEGF proliferation assay; format: cell-based; settings: VEGF-stimulated HUVEC proliferation, MTT, 72 hours
Method: HUVEC+VEGF Proliferation Assay
This assay determines the ability of a test compound to inhibit the growth factor-stimulated proliferation of human umbilical vein endothelial cells (“HUVEC”). HUVEC cells (passage 3-4, Clonetics, Corp.) were thawed into EGM2 culture medium (Clonetics Corp) in T75 flasks. Fresh EGM2 medium was added to the flasks 24 hours later. Four or five days later, cells were exposed to another culture medium (F12K medium supplemented with 10% fetal bovine serum (FBS), […] endothelial cell growth supplement (ECGS), and 0.1 mg/mL heparin). Exponentially-growing HUVEC cells were used in experiments thereafter. Ten to twelve thousand HUVEC cells were plated in 96-well dishes in […] of rich, culture medium (described above). The cells were allowed to attach for 24 hours in this medium. The medium was then removed by aspiration and […] of starvation media (F12K+1% FBS) was added to each well. After 24 hours, […] of test agent dissolved in 1% DMSO in starvation medium or this vehicle alone was added into each treatment well; the final DMSO concentration was 0.1%. One hour later, […] of VEGF (30 ng/mL) in starvation media was added to all wells except those containing untreated controls; the final VEGF concentration was 6 ng/mL. Cellular proliferation was quantified 72 hours later by MTT dye reduction, at which time cells were exposed for 4 hours MTT (Promega Corp.). Dye reduction was stopped by addition of a stop solution (Promega Corp.) and absorbance at 595 nm was determined on a 96-well spectrophotometer plate reader.

[2] = target: T1, human vascular endothelial growth factor receptor 2 (VEGF-R2) (Homo sapiens, UniProt P35968, DEL940-989/E990V); assay: VEGF-R2 coupled spectrophotometric assay (FLVK, unphosphorylated VEGF-R2D50); format: biochemical; settings: unphosphorylated VEGF-R2D50 (FLVK)
T1 construct: VEGF-R2D50 contains residues 806-939 and 990-1171; made in house; host or cells: baculovirus/insect cell system
T1 sequence (P35968 with tags, fused parts or gaps DEL940-989/E990V limits assumed): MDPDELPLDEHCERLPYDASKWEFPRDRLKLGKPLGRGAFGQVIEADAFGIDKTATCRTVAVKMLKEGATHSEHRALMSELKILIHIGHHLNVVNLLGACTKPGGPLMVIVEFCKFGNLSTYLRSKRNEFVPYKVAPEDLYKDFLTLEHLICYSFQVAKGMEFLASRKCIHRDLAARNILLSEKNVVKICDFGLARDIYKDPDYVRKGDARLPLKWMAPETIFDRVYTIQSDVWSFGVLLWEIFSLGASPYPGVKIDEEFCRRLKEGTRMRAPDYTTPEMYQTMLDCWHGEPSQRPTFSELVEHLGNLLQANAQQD
From the text: This construct determines the ability of a test compound to inhibit tyrosine kinase activity. A construct (VEGF-R2D50) of the cytosolic domain of human vascular endothelial growth factor receptor 2 (VEGF-R2) lacking the 50 central residues of the 68 residues of the kinase insert domain was expressed in a baculovirus/insect cell system. Of the 1356 residues of full-length VEGF-R2, VEGF-R2D50 contains residues 806-939 and 990-1171, and also one point mutation (E990V) within the kinase insert domain relative to wild-type VEGF-R2. Autophosphorylation of the purified construct was performed by incubation of the enzyme at a concentration of […] in the presence of 3 mM ATP and 40 mM MgCl2 in 100 mM HEPES, pH 7.5, containing 5% glycerol and 5 mM DTT, at 4° C. for 2 h. […] See Parast et al., Biochemistry, 37, 16788-16801 (1998).
VEGF-R2 Assay: Coupled Spectrophotometric (FLVK-P) Assay
The production of ADP from ATP that accompanies phosphoryl transfer was coupled to oxidation of NADH using phosphoenolpyruvate (PEP) and a system having pyruvate kinase (PK) and lactic dehydrogenase (LDH). The oxidation of NADH was monitored by following the decrease of absorbance at 340 nm (e340=6.22 cm^−1 mM^−1) using a Beckman DU 650 spectrophotometer. Assay conditions for phosphorylated VEGF-R2D50 (indicated as FLVK-P in the tables below) were the following: 1 mM PEP; […] NADH; 50 units of LDH/mL; 20 units of PK/mL; 5 mM DTT; 5.1 mM poly(E4Y1); 1 mM ATP; and 25 mM MgCl2 in 200 mM HEPES, pH 7.5. Assay conditions for unphosphorylated VEGF-R2D50 (indicated as FLVK in the tables) were the following: 1 mM PEP; […] NADH; 50 units of LDH/mL; 20 units of PK/mL; 5 mM DTT; 20 mM poly(E4Y1); 3 mM ATP; and 60 mM MgCl2 and 2 mM MnCl2 in 200 mM HEPES, pH 7.5. Assays were initiated with 5 to 40 nM of enzyme. K1 values were determined by measuring enzyme activity in the presence of varying concentrations of test compounds. The percent inhibition at 50 nM (% inhibition @ 50 nM) was determined by linear least-squares regression analysis of absorbance as a function of time. The binding inhibitions were fitted to equation as described by Morrison. The data were analyzed using Enzyme Kinetic and Kaleidagraph software.

Row | SMILES | Ki [2] [nM] | IC50 ([1]; Homo sapiens) [nM] | IC50 [1] [nM]
1 | CNC(=O)c1c(C)oc2cc(Oc3ccnc4cc(O)ccc34)ccc12 [Example 28, 6-[(7-hydroxyquinoline-4-yl)oxy]-N,2-dimethyl-1-benzofuran-3-carboxamide] | – | 1 to 10 | –
2 | CNC(=O)n1c(C)cc2cc(Nc3ccnc4cc(-c5ccccn5)ccc34)ccc21 [Example 32] | – | 1 to 10 | –
3 | Cc1cc(C)nc(NC(=O)c2c(C)oc3cc(Oc4ccnc5cc(O)ccc45)ccc23)c1 [Example 109, N-(4,6-dimethylpyridin-2-yl)-6-[(7-hydroxyquinolin-4-yl)oxy]-2-methyl-1-benzofuran-3-carboxamide] | – | > 10 | –
4 | COc1ccc2c(Oc3ccc4c(C(=O)NC(C)C)c(C)oc4c3)ccnc2c1 [Example 43, N-isopropyl-6-[(7-methoxyquinolin-4-yl)oxy]-2-methyl-1-benzofuran-3-carboxamide] | – | 1 to 10 | –
5 | COc1ccc2c(Oc3ccc4c(C(=O)Nc5cc(C)cc(C)n5)c(C)oc4c3)ccnc2c1 [Example 108, N-(4,6-dimethylpyridin-2-yl)-6-[(7-methoxyquinolin-4-yl)oxy]-2-methyl-1-benzofuran-3-carboxamide] | – | 1 to 10 | –
6 | Cc1oc2cc(Oc3ccnc4cc(OCCNC5CCC5)ccc34)ccc2c1C(=O)NC1CC1 [Example 100] | – | 1 to 10 | –
7 | C=CCOc1ccc2c(Oc3ccc4c(C(=O)NC)c(C)oc4c3)ccnc2c1 [Example 42, 6-{[7-(allyloxy)quinolin-4-yl]oxy}-N,2-dimethyl-1-benzofuran-3-carboxamide] | – | < 1 | –
8 | COc1ccc2c(Oc3ccc4c(C(=O)NCCCN5CCOCC5)c(C)sc4c3)ccnc2c1 [Example 62, 6-[(7-methoxyquinolin-4-yl)oxy]-2-methyl-N-(3-morpholin-4-ylpropyl)-1-benzothiophene-3-carboxamide] | – | > 10 | –
9 | CNC(=O)c1c(C)oc2cc(Oc3ccnc4cc(OCCN5CCCC5)ccc34)ccc12 [Example 35, N,2-dimethyl-6-{[7-(2-pyrrolidin-1-ylethoxy)quinolin-4-yl]oxy}-1-benzofuran-3-carboxamide] | – | < 1 | –
10 | COc1ccc2c(Oc3ccc4c(C(=O)NC5CC5)c(C)oc4c3)ccnc2c1 [Example 63, N-cyclopropyl-6-[(7-methoxyquinolin-4-yl)oxy]-2-methyl-1-benzofuran-3-carboxamide] | – | < 1 | –
11 | COc1ccc2c(Oc3ccc4c(C(=O)NCCCN5CCOCC5)c(C)oc4c3)ccnc2c1 [Example 64, 6-[(7-methoxyquinolin-4-yl)oxy]-2-methyl-N-(3-morpholin-4-ylpropyl)-1-benzofuran-3-carboxamide] | – | 1 to 10 | –
12 | COc1ccc2c(Oc3ccc4c(C(=O)Nc5ccccn5)c(C)oc4c3)ccnc2c1 [Example 40, 6-[(7-methoxyquinolin-4-yl)oxy]-2-methyl-N-pyridin-2-yl-1-benzofuran-3-carboxamide] | – | < 1 | –
13 | CCCCNC(=O)c1c(C)oc2cc(Oc3ccnc4cc(O)ccc34)ccc12 [Example 41, N-butyl-6-[(7-hydroxyquinolin-4-yl)oxy]-2-methyl-1-benzofuran-3-carboxamide] | – | 1 to 10 | –
14 | CCCCNC(=O)c1c(C)oc2cc(Oc3ccnc4cc(OC)ccc34)ccc12 [Example 39, N-butyl-6-[(7-methoxyquinolin-4-yl)oxy]-2-methyl-1-benzofuran-3-carboxamide] | – | < 1 | –

Continued, in another order:

Row | Ki [2] [nM] | SMILES | IC50 ([1]; Homo sapiens) [nM] | IC50 [1] [nM]
15 | 1 to 10 | COc1ccc2c(Oc3ccc4c(C(=O)NC5CC5)c(C)sc4c3)ccnc2c1 [Example 48, N-cyclopropyl-6-[(7-methoxyquinolin-4-yl)oxy]-2-methyl-1-benzothiophene-3-carboxamide] | 1 to 10 | –
16 | < 1 | CNC(=O)c1c(C)oc2cc(Oc3ccnc4cc(-c5ccco5)ccc34)ccc12 [Example 13, 6-{[7-(2-furyl)quinolin-4-yl]oxy}-N,2-dimethyl-1-benzofuran-3-carboxamide] | 1 to 10 | –
17 | > 10 | COc1ccc2c(Oc3ccc4c(C(=O)NCc5ccccn5)c(C)oc4c3)ccnc2c1 [Example 66, 6-[(7-methoxyquinolin-4-yl)oxy]-2-methyl-N-(pyridin-2-ylmethyl)-1-benzofuran-3-carboxamide] | 1 to 10 | –
18 | 1 to 10 | CNC(=O)c1c(C)sc2cc(Oc3ccnc4cc(-c5ccccn5)ccc34)ccc12 [Example 31] | – | < 1
19 | 1 to 10 | COc1ccc2c(Oc3ccc4c(C(=O)NC5CCCCC5)c(C)sc4c3)ccnc2c1 [Example 52, N-cyclohexyl-6-[(7-methoxyquinolin-4-yl)oxy]-2-methyl-1-benzothiophene-3-carboxamide] | 1 to 10 | –
20 | 1 to 10 | CNC(=O)c1c(C)sc2cc(Oc3ccnc4cc(-c5ccncc5)ccc34)ccc12 [Example 10, N-2-dimethyl-6-[(7-pyridin-4-ylquinolin-4-yl]oxy]-1-benzothiophene-3-carboxamide] | 1 to 10 | –
21 | 1 to 10 | Cc1oc2cc(Oc3ccnc4cc(OC(F)(F)F)ccc34)ccc2c1C(=O)NC1CC1 [Example 73, N-cyclopropyl-2-methyl-6-{[7-(trifluoromethoxy)quinolin-4-yl]oxy}-1-benzofuran-3-carboxamide] | 1 to 10 | –
22 | 1 to 10 | CNC(=O)n1c(C)cc2cc(Nc3ccnc4cc(-c5ccncc5)ccc34)ccc21 [Example 11, N-2-dimethyl-5-[(7-pyridin-4-ylquinolin-4-yl]amino]-1H-indole-1-carboxamide] | < 1 | –
23 | 1 to 10 | CCCCNC(=O)c1c(C)oc2cc(Oc3ccnc4cc(OCCN5CCCCC5)ccc34)ccc12 [Example 47, N-butyl-2-methyl-6-{[7-(2-piperidin-1-ylethoxy)quinolin-4-yl]oxy}-1-benzofuran-3-carboxamide] | < 1 | –
24 | < 1 | COCC(C)NCCOc1ccc2c(Oc3ccc4c(C(=O)NC5CC5)c(C)oc4c3)ccnc2c1 (centres unmarked) [Example 97, N-cyclopropyl-6-[(7-{2-[(2-methoxy-1-methylethyl)amino]ethoxy}quinolin-4-yl)oxy]-2-methyl-1-benzofuran-3-carboxamide] | – | –
25 | > 10 | CCC(O)CNC(=O)c1c(C)sc2cc(Oc3ccnc4cc(OC)ccc34)ccc12 (centres unmarked) [Example 81, N-(2-hydroxybutyl)-6-[(7-methoxyquinolin-4-yl)oxy]-2-methyl-1-benzothiophene-3-carboxamide] | – | –
26 | > 10 | CNC(=O)c1c(C)n(C)c2cc(Oc3ccnc4cc(O)ccc34)ccc12 [Example 76] | – | –
27 | > 10 | CNC(=O)c1c(C)n(C)c2cc(Oc3ccnc4cc(OC)ccc34)ccc12 [Example 75, [(7-methoxyquinolin-4-yl)oxy]-N,1,2-trimethyl-1H-indole-3-carboxamide] | – | –
28 | > 10 | COc1ccc2c(Oc3ccc4c(C(=O)NCc5cccnc5)c(C)sc4c3)ccnc2c1 [Example 54, 6-[(7-methoxyquinolin-4-yl)oxy]-2-methyl-N-(pyridin-3-ylmethyl)-1-benzothiophene-3-carboxamide] | – | –
29 | > 10 | COc1ccc2c(Oc3ccc4c(C(=O)NCCN(C)C)c(C)sc4c3)ccnc2c1 [Example 49, N-[2-(dimethylamino)ethyl]-6-[(7-methoxyquinolin-4-yl)oxy]-2-methyl-1-benzothiophene-3-carboxamide] | – | –
